Source: PubChem BioAssay (NCI)
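Where inhibition never reached the appropriate level, the endpoint shown equals the highest concentration tested. Otherwise, values were interpolated linearly from a five-concentration, 48-hour dose response in 96-well plates. GI50: concentration for 50% inhibition of growth. Definition used: TGI = concentration required for complete inhibition of growth.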

Assays:
Experiment in all cases: inhibition of tumour cell growth, NCI panel, 48 h
[1] = system: UACC-62 melanoma
[2] = system: MDA-MB-435
[3] = system: ACHN renal
[4] = system: PC-3 prostate
[5] = system: KM12 colon
[6] = system: EKVX NSCLC
[7] = system: MCF7 breast
[8] = system: CAKI-1 renal
[9] = system: BT-549 breast
[10] = system: MDA-MB-231 breast
[11] = system: HCT-116 colon
[12] = system: T-47D breast
[13] = system: SK-OV-3 ovarian
[14] = system: U251 CNS
[15] = system: UACC-257 melanoma
[16] = system: SK-MEL-28 melanoma
[17] = system: NCI-H23 lung
[18] = system: SK-MEL-5 melanoma
[19] = system: NCI-H226 lung
[20] = system: OVCAR-5 ovarian
[21] = system: HOP-92 NSCLC
[22] = system: SF-539 CNS
[23] = system: SN12C renal
[24] = system: HT29 colon
[25] = system: OVCAR-8 ovarian
[26] = system: K-562 leukemia
[27] = system: IGROV1 ovarian
[28] = system: HL-60(TB) leukemia
[29] = system: CCRF-CEM leukemia
[30] = system: OVCAR-3 ovarian
[31] = system: COLO 205 colon
[32] = system: SK-MEL-2 melanoma
[33] = system: M14 melanoma
[34] = system: UO-31 renal
[35] = system: NCI-H522 lung
[36] = system: SR leukemia
[37] = system: SF-295 CNS
[38] = system: RPMI-8226 leukemia
[39] = system: MOLT-4 leukemia
[40] = system: NCI-H460 lung
[41] = system: NCI/ADR-RES ovarian
[42] = system: RXF 393 renal
[43] = system: A498 renal
[44] = system: SNB-75 CNS
[45] = system: HCT-15 colon
[46] = system: HS 578T breast
[47] = system: A549 NSCLC
[48] = system: LOX IMVI melanoma
[49] = system: SNB-19 CNS
[50] = system: TK-10 renal
[51] = system: 786-0 renal
[52] = system: DU-145 prostate
[53] = system: SF-268 CNS
[54] = system: OVCAR-4 ovarian
[55] = system: HCC-2998 colon
[56] = system: HOP-62 NSCLC
[57] = system: MALME-3M melanoma
[58] = system: SW-620 colon

Q: Which results are given for `CCN(CC)c1ccc(/C=N/NC(=O)c2ccc(NS(C)(=O)=O)cc2)cc1`?
A: GI50 [1]: 526 nM; TGI [1]: 10200 nM; GI50 [2]: 1560 nM; TGI [2]: > 100000 nM; GI50 [3]: 656 nM; TGI [3]: 57100 nM; GI50 [4]: 561 nM; TGI [4]: > 100000 nM; GI50 [5]: 907 nM; TGI [5]: > 66800 nM; GI50 [6]: 1010 nM; TGI [6]: > 77000 nM; GI50 [7]: 598 nM; TGI [7]: > 100000 nM; GI50 [8]: 554 nM; TGI [8]: > 47000 nM; GI50 [9]: 847 nM; TGI [9]: 11200 nM; GI50 [10]: 546 nM; TGI [10]: > 72100 nM; GI50 [11]: 352 nM; TGI [11]: > 87700 nM; GI50 [12]: 1220 nM; TGI [12]: > 72100 nM; GI50 [13]: 1050 nM; TGI [13]: 27700 nM; GI50 [14]: 236 nM; TGI [14]: > 44500 nM; GI50 [15]: 1100 nM; TGI [15]: 21200 nM; GI50 [16]: 498 nM; TGI [16]: > 78200 nM; GI50 [17]: 1890 nM; TGI [17]: > 100000 nM; GI50 [18]: 1670 nM; TGI [18]: > 46500 nM; GI50 [19]: 1210 nM; TGI [19]: 38000 nM; GI50 [20]: 2320 nM; TGI [20]: > 100000 nM; GI50 [21]: 457 nM; TGI [21]: 40300 nM; GI50 [22]: 571 nM; TGI [22]: 11300 nM; GI50 [23]: 978 nM; TGI [23]: > 100000 nM; GI50 [24]: 556 nM; TGI [24]: 18700 nM; GI50 [25]: 445 nM; TGI [25]: > 100000 nM; GI50 [26]: 595 nM; TGI [26]: > 100000 nM; GI50 [27]: 716 nM; TGI [27]: > 100000 nM; GI50 [28]: 294 nM; GI50 [29]: 301 nM; TGI [29]: > 100000 nM; GI50 [30]: 231 nM; TGI [30]: 20100 nM; GI50 [31]: 643 nM; TGI [31]: 25900 nM; GI50 [32]: 4330 nM; TGI [32]: 24600 nM; GI50 [33]: 463 nM; TGI [33]: 3420 nM; GI50 [34]: 580 nM; TGI [34]: 24400 nM; GI50 [35]: 418 nM; TGI [35]: 15100 nM; GI50 [36]: 170 nM; TGI [36]: > 100000 nM; GI50 [37]: 828 nM; TGI [37]: 20700 nM; GI50 [38]: 4280 nM; TGI [38]: > 60700 nM; GI50 [39]: 433 nM; TGI [39]: > 41300 nM; GI50 [40]: 564 nM; TGI [40]: 11800 nM; GI50 [41]: 3860 nM; TGI [41]: > 100000 nM; GI50 [42]: 1180 nM; TGI [42]: 4780 nM; GI50 [43]: 6090 nM; TGI [43]: 41300 nM; GI50 [44]: 434 nM; TGI [44]: 16900 nM; GI50 [45]: 431 nM; TGI [45]: 49100 nM; GI50 [46]: 2740 nM; TGI [46]: 58900 nM; GI50 [47]: 2430 nM; TGI [47]: > 100000 nM; GI50 [48]: 301 nM; TGI [48]: 10900 nM; GI50 [49]: 1600 nM; TGI [49]: > 79600 nM; GI50 [50]: 1740 nM; TGI [50]: > 92600 nM; GI50 [51]: 714 nM; TGI [51]: 6480 nM; GI50 [52]: 933 nM; TGI [52]: > 100000 nM; GI50 [53]: 383 nM; TGI [53]: > 49000 nM; GI50 [54]: 409 nM; TGI [54]: > 100000 nM; GI50 [55]: 704 nM; TGI [55]: > 76800 nM; GI50 [56]: 415 nM; TGI [56]: 17800 nM; GI50 [57]: 1170 nM; TGI [57]: 15300 nM; GI50 [58]: 693 nM; TGI [58]: > 100000 nM
